Literature values as cited in patent US6673157B1, “Methods for stripping paint with DMSO containing compositions” (Gaylord Chemical Corporation, priority 2000, dated 2004).

Assays:
[1] = pure substance
[2] = applied to intact human skin in vivo; abrupt fall-off below 70%
[3] = DMSO concentrations as high as 40%; living human skin

Row | SMILES | Rate of penetration of animal skin [1] | DMSO concentration at which it penetrates intact skin to the blood vessels [2] | Effect of DMSO on rate of skin penetration of octyl acetate [3] | LD50 oral rat toxicity
1 | C[S+](C)[O-] [DMSO, dimethyl sulfoxide] | approximately 176±42 g/m^2/hr | ≥ 70% | did not increase the rate of skin penetration of octyl acetate | approximately 17,400 milligrams per kilogram
2 | CC(=O)OC(C)(C)C [t-butyl acetate] |  |  |  | about 4500 mg per kilogram
3 | O [water, reference compound] | approximately 14.8±0.1 g/m^2/hr |  |  | 
